Results on eleven compounds are retold here after patent US7064120B2, “Tricyclic pyridyl carboxamides and derivatives thereof tocolytic oxytocin receptor antagonists” (Wyeth, priority 2001, dated 2006).

SMILES strings stand for the structures.

In general, inhibition refers to the percentage by which the read-out fell short of the control.

The first assay has as its target T1, human oxytocin receptor (Homo sapiens, UniProt P30559).
T1 construct: host or cells: CHO cells, stably transfected (pcDNA3.1 vector)
T1 sequence (P30559 1-389): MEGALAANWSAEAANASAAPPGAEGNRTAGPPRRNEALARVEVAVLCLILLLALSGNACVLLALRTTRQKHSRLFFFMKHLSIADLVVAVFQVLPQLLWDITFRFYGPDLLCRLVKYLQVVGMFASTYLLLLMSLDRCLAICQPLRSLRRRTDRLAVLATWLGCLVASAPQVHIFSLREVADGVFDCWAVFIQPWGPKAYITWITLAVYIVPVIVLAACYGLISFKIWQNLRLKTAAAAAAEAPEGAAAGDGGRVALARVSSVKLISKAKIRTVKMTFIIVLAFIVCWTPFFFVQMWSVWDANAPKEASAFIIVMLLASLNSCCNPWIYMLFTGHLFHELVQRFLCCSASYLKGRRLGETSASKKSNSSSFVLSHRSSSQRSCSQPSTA
In words: Oxytocin binding in CHO cell membranes expressing human oxytocin receptors ([3H]oxytocin radioligand binding). Conditions: 100 nM. As to the method:
Oxytocin Binding in Chinese Hamster Ovary Cell Membranes Expressing Human Oxytocin Receptors
Cell Culture medium (e.g. 30 mL for 1:30 split) is immediately added and mixed well to inactivate trypsin. 1 mL of detached cells is added to new culture flasks containing fresh Cell Culture medium (e.g. into 25 mL per T-150 flask), and mixed gently. The cells are incubated at 37° C. in 5% CO2. The medium is changed at 3 to 4 days interval (or as appropriate). […] All steps are done under sterile conditions.
The cells are washed twice gently with Hank's Balanced Salt solution (e.g., use 10 mL per T-150 flask). […] The contents are transferred to centrifuge tubes (50 mL size) kept in ice bath. All subsequent steps are done at 4° C. The tubes are centrifuged at 300×g for 15 min (1380 rpm on SORVAL, Model RT6000D, using rotor for 50 mL tubes). The supernatant is discarded and the cells suspended in homogenizing buffer (10 mM Tris-HCl containing 0.25 M sucrose and 1 mM EDTA, pH 7.4) ensuring that the volume of the buffer is about ten times the volume of the cell pellet. The cells are pooled into a centrifuge tube (50 mL) and homogenized with a Polytron at setting 6 for 10 sec. The homogenate is transferred into a Potter-Elvjehm homogenizer and homogenized with 3 strokes. The homogenate is centrifuged at 1500×g for 10 min at 4° C. (3100 rpm using SORVAL, model RT6000D, using a rotor for 50 mL tubes). The pellet is discarded. The supernatant is centrifuged at 100,000×g for 60 min. at 4° C. (Beckman L8-80M ultracentrifuge; spin at 37,500 rpm with rotor type 70 Ti for 50 mL tubes; 38,000 rpm with rotor type 8OTi for 15 mL tubes; or 35,800 rpm with rotor type 45Ti). The supernantant is discarded and the pellet suspended in 3 to 4 mL of Tris buffer (50 mM TRIS-HCl, pH 7.4). The protein content is estimated by the Bradford or Lowry method. The volume of the membrane suspension is adjusted with the membrane buffer (50 mM Tris-HCl containing 0.1% BSA and 0.1 mM PMSF) to give 3.0 mg/mL (or as appropriate) of protein. The membranes are aliquoted and stored at −70° C.
In wells of a 96-well format microtiter plate, is added 90, 110 or 130 μL (to make up a final volume of 200 μL) of assay buffer containing 50 mM of Tris-HCl (pH 7.4), […], 1 mg % aprotinin, 1 mg % leupeptin, 2 mg % 1,10-phenanthroline, 10 mg % trypsin inhibitor, and 0.1 mM PMSF. The inhibitors are added on the day of the experiment. The components are mixed at room temperature, and then kept in ice bath following adjustment of the pH to 7.4. […] For oxytocin and other peptide ligands, 20 μL of 50% DMSO is added and the assay buffer volume is adjusted accordingly. To each well is added 50 μL of frozen membrane suspension thawed immediately prior to use and diluted in assay buffer to the required concentration (equivalent to 25 to 50 μg of protein/well as needed). 20 μL of 8 nM [^3H]oxytocin in the assay buffer, prepared just before use is added and incubated at room temperature for 60 min. shaking the plate on a mechanical shaker for the first 15 min. The incubation is stopped by rapid filtration of the plate contents followed by washing with ice-cold buffer (50 mM Tris-HCl, pH 7.4) using a cell harvester (Tomtek and Printed filtermat-B filter paper). The filter paper is thoroughly dried (7–12 min. in a microwave oven) and impregnated with MeltiLex B/H melt-on scintillation wax sheets and the radioactivity counted in a betaplate scintillation counter.
Binding data is either reported as percent inhibition at a certain concentration or if an IC50 was calculated, as a nanomolar concentration.
In the case of `COc1cccc(-c2ccc(C(=O)N3Cc4ccc(C(=O)NCc5ccncc5)n4Cc4ccccc43)cc2OC)c1` [Example 98], the “OT % inhibition @ 100 nM” value was found to be 39%.

Still in this assay, the particulars now being: 100 nM, read-out: OT % inhibition @ 100 nM.
For `Cc1ccccc1-c1ccc(C(=O)N2Cc3ccc(C(=O)NCc4ccccn4)n3Cc3ccccc32)cc1` [Example 27, 10-[(2′-Methyl-[1,1′-biphenyl]-4-yl)carbonyl]-N-(2-pyridinylmethyl)-10,11-dihydro-5H-pyrrolo[2,1-c][1,4]benzodiazepine-3-carboxamide], the inhibition at 0.1 µM worked out at 22%.

`O=C(NCc1ccccn1)c1ccc2n1Cc1ccccc1N(C(=O)c1ccc(-c3cccc4ccccc34)cc1Cl)C2` [Example 34, 10-[2-Chloro-4-(naphthalen-1-yl)benzoyl]-N-(2-pyridinylmethyl)-10,11-dihydro-5H-pyrrolo[2,1-c][1,4]benzodiazepine-3-carboxamide]: the inhibition at 0.1 µM is 5%.

For `COc1cc(C(=O)N2Cc3ccc(C(=O)N4CCN(c5ccncc5)CC4)n3Cc3ccccc32)ccc1-n1c(C)ccc1C` [Example 146, {10-[4-(2,5-Dimethyl-1H-pyrrol-1-yl)-3-methoxybenzoyl]-10,11-dihydro-5H-pyrrolo[2,1-c][1,4]benzodiazepin-3-yl}[4-(pyridin-4-yl)-1-piperazinyl]methanone], the inhibition at 0.1 µM was 38%.

Turning to `COc1ccccc1-c1ccc(C(=O)N2Cc3ccc(C(=O)N(C)CCc4ccncc4)n3Cc3ccccc32)cc1OC` [Example 125, 10-[(2,2′-Dimethoxy-[1,1′-biphenyl]-4-yl)carbonyl]-N-methyl-N-[2-(4-pyridinyl)ethyl]-10,11-dihydro-5H-pyrrolo[2,1-c][1,4]benzodiazepine-3-carboxamide], the inhibition at 0.1 µM was 94%.

Consider `COc1cc(C(=O)N2Cc3ccc(C(=O)NCCc4ccccn4)n3Cc3ccccc32)ccc1-c1cccc2ccccc12` [Example 57, 10-[3-Methoxy-4-(naphthalen-1-yl)benzoyl]-N-[2-(2-pyridinyl)ethyl]-10,11-dihydro-5H-pyrrolo[2,1-c][1,4]benzodiazepine-3-carboxamide], for which the inhibition at 0.1 µM amounted to 32%.

Turning to `COc1cc(-c2ccccc2C)c(Cl)cc1C(=O)N1Cc2ccc(C(=O)N(C)Cc3cccnc3)n2Cc2ccccc21` [Example 107, 10-[(6-Chloro-3-methoxy-2′-methyl-[1,1′-biphenyl]-4-yl)carbonyl]-N-methyl-N-(3-pyridinylmethyl)-10,11-dihydro-5H-pyrrolo[2,1-c][1,4]benzodiazepine-3-carboxamide], the inhibition at 0.1 µM amounted to 92%.

Turning to `COc1cccc(-c2ccc(C(=O)N3Cc4ccc(C(=O)N(C)CCc5ccncc5)n4Cc4ccccc43)cc2C)c1` [Example 128, 10-[(3′-Methoxy-2-methyl-[1,1′-biphenyl]-4-yl)carbonyl]-N-methyl-N-[2-(4-pyridinyl)ethyl]-10,11-dihydro-5H-pyrrolo[2,1-c][1,4]benzodiazepine-3-carboxamide], the inhibition at 0.1 µM amounted to 88%.

Consider `COc1cccc(-c2ccc(C(=O)N3Cc4ccc(C(=O)N5CCN(c6ccncc6)CC5)n4Cc4ccccc43)cc2OC)c1` [Example 123, {10-[(2,3′-Dimethoxy-[1,1′-biphenyl]-4-yl)carbonyl]-10,11-dihydro-5H-pyrrolo[2,1-c][1,4]benzodiazepin-3-yl}[4-(4-pyridinyl)-1-piperazinyl]methanone], for which the inhibition at 0.1 µM amounted to 95%.

As to `COc1cc(C(=O)N2Cc3ccc(C(=O)NCc4ccccn4)n3Cc3ccccc32)ccc1-c1ccccc1C` [Example 28, 10-[(2-Methoxy-2′-methyl-[1,1′-biphenyl]-4-yl)carbonyl]-N-(2-pyridinylmethyl)-10,11-dihydro-5H-pyrrolo[2,1-c][1,4]benzodiazepine-3-carboxamide], the inhibition at 0.1 µM is 50%.

For the compound `COc1cc(C(=O)N2Cc3ccc(C(=O)N(C)CCc4ccncc4)n3Cc3ccccc32)ccc1-n1c(C)ccc1C` [Example 147, 10-[4-(2,5-Dimethyl-1H-pyrrol-1-yl)-3-methoxybenzoyl]-N-methyl-N-[2-(pyridin-4-yl)ethyl]-10,11-dihydro-5H-pyrrolo[2,1-c][1,4]benzodiazepine-3-carboxamide], the inhibition at 0.1 µM was determined as 64%.
